# Measurements: ChEMBL document CHEMBL1149060, “Structure of malhamensilipin A, an inhibitor of protein tyrosine kinase, from the cultured chrysophyte Poterioochromonas malhamensis” (J Nat Prod, 1994)
# Assay: Inhibition of Rous sarcoma virus pp60v-src
structure (smiles),measurement,value
CCCCCCCCC(Cl)C(Cl)C(O)C(Cl)C(Cl)C(Cl)CCCCCCCC/C(Cl)=C\OS(=O)(=O)O (stereo unspecified) [MALHAMENSILIPIN A],IC50,35 µM
